{
  "source": "patent US7192932B1",
  "about": "“Use of immunomodulating agents” (Lauras AS, priority 1997, dated 2007)",
  "molecules": {"B1": {"name": "Ht31 competitor peptide (amino acids 493-515 of the A-kinase anchoring protein (AKAP) Ht31) (peptide)", "peptide": "H-DLIEEAASRIVDAVIEQVKAAGAY-OH"}},
  "key": {"[1]": {"test_system": "peripheral blood CD3+ T cells", "experiment": "TCR/CD3 (anti-CD3) stimulated T cell proliferation, [3H]-thymidine incorporation", "assay_type": "cell-based, human", "conditions": "T cells from normal blood donors, FIG. 3A", "description": "(§1) Human peripheral blood CD3+ T cells were purified by negative selection from 50 ml of heparin-treated blood from normal healthy donors (Ullevaal University Hospital Blood Center, Oslo. Norway) or patients. Briefly, peripheral blood mononuclear cells were isolated by density gradient (Lymphoprep, NycoMed, Oslo, Norway) centrifugation followed by negative selection using monodisperse magnetic beads directly coated with antibodies to CD14 and CD19 and rat anti-mouse IgG beads coated with antibodies to CD56 and a magnet. Magnetic beads were all from Dynal (Oslo, Norway, cat. no. 111.12, 111.04, and 110.11. respectively) whereas anti-CD56 antibody was from Pharmingen (San Diego, Calif., cat. no. 31660.d). All steps were performed at 4° C.\nas §1, with “Peripheral blood” for “Human peripheral blood”, “Center, Oslo,” for “Center, Oslo.”, “selection using,” for “selection using”, “and 110.11,” for “and 110.11.”, “Calif., eat.” for “Calif., cat.”\nProliferation assays were performed by incubation of 0.75×10^6 CM+ T cells/ml in a 100 μl volume in that-bottom 96-well microtiter plates. Activation was achieved by subsequent addition of monodisperse magnetic beads coated with sheep anti-mouse IgG (Dynal. cat. no. 110.02) at a cell:bead ratio of 1:1 followed by addition of antiCD3 (clone SpvT3b) at a final dilution of 1:125,000 for the experiments shown. The optimal concentration of antibody was titrated carefully in the initial setup and parallel experiments at several different dilutions of antibody was always performed. Proliferation was analyzed by incubating, cells for 72 hours during which [^3H]thymidine was included for the last 16 hours. Cells were washed and harvested onto filters using a Scatron harvester (Suffolk, UK) and subsequently analyzed by β-scintillation counting. cAMP analogs, when used, were added 30 min prior to activation by addition of […] antibodies. 8-CPT-cAMP was from Sigorna (St. Louis, Mo.) and Sp- and Rp-8-Br-cAMPS were from BioLog Life Science Company (Bremen, Germany) and were all dissolved to concentrations of 4 to 10 mM in PBS and concentrations calculated using the extinction coefficients given by the manufacturer."}, "[2]": {"test_system": "peripheral blood CD3+ T cells", "experiment": "TCR/CD3 stimulated proliferation of liposome-transfected CD3+ T cells treated with 8-CPT-cAMP", "assay_type": "cell-based, human", "conditions": "for Effect of peptide on cAMP dependent inhibition of T cell proliferation: increasing concentrations (25 to 100 μM), 8-CPT-cAMP 6.25 μM, FIG. 9", "description": "FIG. 8. Reversal of cAMP-mediated inhibition of TUR/CD3 stimulated T cell proliferation by the use of ribozyme to the RIα subunit of protein kinase A type I. TCR/CD3 stimulated proliferation of peripheral blood CD3+ T cells from normal healthy blood donor following treatment with liposomes alone (mock) or with liposomes and RIα ribozyme (RIα rbz, 10 μM) in the absence (solid bars) and presence (open bars) of 8-CPT-cAMP (12,5 μM).\nFIG. 9. Reversal of cAMP-mediated inhibition of TCR/CD3 stimulated T cell proliferation by the use of competitor peptide to compete the TCR/CD3 associated anchoring of RIα subunit of protein kinase A type I in T cells. TCR/CD3 stimulated proliferation of peripheral blood CD3+ T cells from normal healthy blood donor following treatment with liposomes alone (mock) or with increasing concentrations (25 to 100 μM) of a competitor peptide (Ht-31) that competes anchoring, to PKA type II or a control peptide (Ht31-P).\nFIG. 10. TCR/CD3 stimulated proliferation of peripheral blood CD3+ T cells in the presence of increasing, concentrations of 8-CPT-cAMP. Normalized levels of proliferation of T cells mock transfected with liposomes only (solid circles, continuous line) or incubated with liposomes and Ht31 peptide (35 μM) to compete anchoring of protein kinase A type I (open circles, dotted line) was assessed as [^3H]-thymidine incorporation after 48 h during which [^3H]-thymidine was added for the last 18 h. Note: right shift of the IC50 (arrow) from 1,8 to 4,8 μM in the presence of […].\nWhen transfected as synthetic RNA ribozyme or as a synthetic RNA ribozyme stabilized by incorporation of 2-deoxycytosine and 2-deoxy-uracil analogs into peripheral blood CD3+ T cells, the ribozyme reduced levels of RIα protein to approximately 20% of control levels by removing the RIα mRNA. By this strategy, the majority of protein kinase A type 1 was removed from the T cells. We then assessed the immune responsiveness of CD3+ T cells transfected with ribozyme compared to control (mock) transfected T cells measured as T cell proliferation after activation of T cells by stimulation of the T cell receptor/CD3 complex (TCR/CD3). In order to simulate a T cell dysfunction as that of HIV infection, with elevated levels of cAMP and increased activation of protein kinase A type 1, we treated normal T cells with low dose (12.5 around IC50) of the cAMP analog 8-(4-chlorophenyl)-thio-cAMPS (8-CPT-cAMP). […] For in vivo use pretreatment of ribozymes to allow cellular uptake or introduction into cells as minigenes will be necessary.\nWe incubated blood CD3+ T cells with increasing concentrations of Ht31 (SEQ. ID. NO 2) peptide. In order to facilitate uptake, cells were treated with liposomes in the presence or absence of-peptide. The optimal concentrations of DOTAP liposomes and anti-CD3 antibody were titrated carefully in order to maintain the membrane stability and normal TCR/CD3-dependent activation of the T cells. Cells were incubated for 20 hours with DOTAP/peptide and incubations continued in the absence (solid bars) or presence of 8-CPT-cAMP (6.25 μM, hatched bars) and activated to proliferation by stimulation of TCR/CD3 T cell immune responsiveness was assessed as [3H]thymidine incorporation.\nNext, the effect of the competitor peptide (Ht-31, 35 μM) on T cell proliferation was examined in the presence of increasing concentrations of 8-CPT-cAMP and compared to mock transfected cells treated with the same concentrations of 8-CPT-cAMP (FIG. 10). As shown previously for normal peripheral blood T cells. […] Compared to the left-shifted curves observed with T cells from HIV-infected patients or patients with CIV due to elevated levels of endogenous cAMP activating PKA type 1, the right-shift observed here would be expected to normalize the situation in patients."}, "PKAII isozymes": {"test_system": "PKAII isozymes", "conditions": "cited from earlier work"}, "PKAI isozymes": {"test_system": "PKAI isozymes", "conditions": "cited from earlier work"}, "PBMC": {"test_system": "PBMC", "conditions": "cited from earlier work"}, "[3]": {"target": "RIα subunit of cAMP-dependent protein kinase A type I (human, UniProt P10644 1-381)", "sequence (P10644 whole entry)": "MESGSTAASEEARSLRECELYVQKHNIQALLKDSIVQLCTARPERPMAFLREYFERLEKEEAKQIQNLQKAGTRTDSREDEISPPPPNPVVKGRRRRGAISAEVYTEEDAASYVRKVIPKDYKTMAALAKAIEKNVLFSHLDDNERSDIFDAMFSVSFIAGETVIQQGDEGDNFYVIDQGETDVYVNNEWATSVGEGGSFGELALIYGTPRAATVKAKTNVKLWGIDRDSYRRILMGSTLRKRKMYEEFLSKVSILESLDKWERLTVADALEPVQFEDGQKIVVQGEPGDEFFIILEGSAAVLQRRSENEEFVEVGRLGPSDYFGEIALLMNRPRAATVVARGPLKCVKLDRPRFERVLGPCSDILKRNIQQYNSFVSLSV", "experiment": "cell-based or functional assay"}},
  "data": [
    {"molecule": "Nc1ncnc2c1nc(Br)n2[C@@H]1O[C@@H]2COP(O)(=S)O[C@@H]2C1O", "note": "(some centres unmarked) [Sp-8-Br-cAMPS, Sp-8-Bromo-cAMP-phosphorothioate, reference compound]", "values": [
      {"measurement": "Effect of cAMP agonist on TCR/CD3-stimulated proliferation", "setting": "[1]", "value": "inhibited"}
    ]},
    {"molecule": "H2N-Asp-Leu-Ile-Glu-Glu-Ala-Ala-Ser-Arg-Ile-Val-Asp-Ala-Val-Ile-Glu-Gln-Val-Lys-Ala-Ala-Gly-Ala-Tyr-COOH (H-DLIEEAASRIVDAVIEQVKAAGAY-OH) [Ht31]", "values": [
      {"measurement": "Effect of peptide on 8-CPT-cAMP inhibition curve", "setting": "[2]; 35 μM peptide, FIG. 10", "value": "right-shifted inhibition curve"},
      {"measurement": "Effect of peptide on cAMP dependent inhibition of T cell proliferation", "setting": "[2]", "value": "reduced sensitivity to cAMP"},
      {"measurement": "Effect of peptide on cAMP dependent inhibition of T cell proliferation", "setting": "[2]; listed as Ht-31", "value": "reversed the cAMP dependent inhibition"}
    ]},
    {"molecule": "Nc1ncnc2c1ncn2[C@@H]1O[C@@H]2CO[P@@](O)(=S)O[C@H]2[C@H]1O", "note": "[Rp-cAMPS, Rp-cAMP-phosphorothioate]", "values": [
      {"measurement": "Mode of action on PKAII isozymes", "setting": "PKAII isozymes", "value": "partial agonist"},
      {"measurement": "Mode of action on PKAI isozymes", "setting": "PKAI isozymes", "value": "full antagonist"}
    ]},
    {"molecule": "C[C@H]1O[C@@H](n2cnc3c(N)ncnc32)C[C@@H]1O", "note": "[ddAdo, 2′,5′ dideoxyadenosine]", "values": [
      {"measurement": "Effect on cell proliferation", "setting": "PBMC; PBMC", "value": "increased the cell proliferation"},
      {"measurement": "Effect on cellular cAMP levels", "setting": "PBMC; PBMC", "value": "reduced cellular cAMP levels"},
      {"measurement": "Effective concentrations", "setting": "PBMC; higher concentrations suppressive or without further effect", "value": "~6", "unit": "ng/mL"}
    ]},
    {"molecule": "B1", "values": [
      {"measurement": "IC50 of 8-CPT-cAMP for inhibition of TCR/CD3 stimulated T cell proliferation with Ht-31 (35 µM); mock transfected cells had an IC50 around 1.8 µM", "setting": "[3]", "value": 4.8, "unit": "µM"},
      {"measurement": "TCR/CD3 stimulated proliferation of CD3+ T cells ([3H]thymidine incorporation) in the presence of 8-CPT-cAMP (6.25 µM), peptide delivered with DOTAP liposomes", "setting": "[3]", "value": 3, "unit": "fold"}
    ]}
  ]
}
